From patent publication US20200147037A1, “NEW TREATMENT OF BRAIN CANCER” (priority 2017, published 2020)

Legend:
[1] = test system: A549 highly metastatic human lung tumor; conditions: Paclitaxel 25 μM
glioblastoma = conditions: intracranial pump; WANG et al. 2018; cited from earlier work

Compound | % of embryo death [1] | Tumor weight [1] | reduction of brain metastases amount compared to controls [1] | increase in survival (glioblastoma)
CC(=O)O[C@H]1C(=O)[C@@]2(C)[C@H]([C@H](OC(=O)c3ccccc3)[C@]3(O)C[C@H](OC(=O)[C@H](O)[C@@H](NC(=O)c4ccccc4)c4ccccc4)C(C)=C1C3(C)C)[C@]1(OC(C)=O)CO[C@@H]1C[C@@H]2O [Paclitaxel, paclitaxel] | 24%, N = 21 | 20.558 ± 1.902 mg | 61% | –
CC(C)C[C@H](NC(=O)[C@H](Cc1ccccc1)NC(=O)c1cnccn1)B(O)O [Bortezomib] | – | – | – | 40%
